Reference: the NIST ThermoML archive (doi:10.1016/j.jct.2006.04.007)

Assay: mn = molality of the nth substance listed, in mol/kg
Conditions: 350 kPa, Liquid; for apparent molar heat capacity: Extra sensitive DSC

CNC(C)=O [N-methylacetamide] + O
Conditions	apparent molar heat capacity [J/K/mol]	mass density [kg/m3]
278.15 K, m1 = 0.015	221	999.98
278.15 K, m1 = 0.04	230	1000.02
278.15 K, m1 = 0.07	243.9	1000.14
278.15 K, m1 = 0.1001	239.7	1000.14
278.15 K, m1 = 0.2002	240.2	1000.14
278.15 K, m1 = 0.4	238.2	1000.26
278.15 K, m1 = 0.599	251.1	1000.35
278.15 K, m1 = 0.8028	237.5	1000.66
278.15 K, m1 = 1	236.3	1000.98
283.15 K, m1 = 0.015	217	999.8
283.15 K, m1 = 0.04	225	999.78
283.15 K, m1 = 0.07	246	999.85
283.15 K, m1 = 0.1001	242.5	999.83
283.15 K, m1 = 0.2002	243.9	999.82
283.15 K, m1 = 0.4	242.3	999.89
283.15 K, m1 = 0.599	254.9	1000
283.15 K, m1 = 0.8028	242.4	1000.14
283.15 K, m1 = 1	241.4	1000.43
288.15 K, m1 = 0.015	213	999.2
288.15 K, m1 = 0.04	221	999.19
288.15 K, m1 = 0.07	247	999.23
288.15 K, m1 = 0.1001	247.1	999.22
288.15 K, m1 = 0.2002	247.9	999.16
288.15 K, m1 = 0.4	246	999.24
288.15 K, m1 = 0.599	257.6	999.28
288.15 K, m1 = 0.8028	245.8	999.39
288.15 K, m1 = 1	244.9	999.54
293.15 K, m1 = 0.015	220	–
293.15 K, m1 = 0.04	230	–
293.15 K, m1 = 0.07	250	–
293.15 K, m1 = 0.1001	251.4	–
293.15 K, m1 = 0.2002	251.6	–
293.15 K, m1 = 0.4	249.2	–
293.15 K, m1 = 0.599	259.8	–
293.15 K, m1 = 0.8028	248.7	–
293.15 K, m1 = 1	248	–
298.15 K, m1 = 0.015	228	–
298.15 K, m1 = 0.04	238	–
298.15 K, m1 = 0.07	252.1	–
298.15 K, m1 = 0.1001	254.8	–
298.15 K, m1 = 0.2002	254.7	–
298.15 K, m1 = 0.4	251.85	–
298.15 K, m1 = 0.599	261.9	–
298.15 K, m1 = 0.8028	251.4	–
298.15 K, m1 = 1	250.8	–
303.15 K, m1 = 0.015	232	–
303.15 K, m1 = 0.04	245	–
303.15 K, m1 = 0.07	254.5	–
303.15 K, m1 = 0.1001	259	–
303.15 K, m1 = 0.2002	258.7	–
303.15 K, m1 = 0.4	254.53	–
303.15 K, m1 = 0.599	264	–
303.15 K, m1 = 0.8028	254.1	–
303.15 K, m1 = 1	253.5	–
308.15 K, m1 = 0.015	236	994.14
308.15 K, m1 = 0.04	250.5	994.12
308.15 K, m1 = 0.07	257.5	994.1
308.15 K, m1 = 0.1001	262.8	994.07
308.15 K, m1 = 0.2002	261.8	993.96
308.15 K, m1 = 0.4	257.09	993.88
308.15 K, m1 = 0.599	266	993.8
308.15 K, m1 = 0.8028	256.5	993.77
308.15 K, m1 = 1	255.95	993.7
313.15 K, m1 = 0.015	243	–
313.15 K, m1 = 0.04	256.4	–
313.15 K, m1 = 0.07	259.8	–
313.15 K, m1 = 0.1001	264.8	–
313.15 K, m1 = 0.2002	263.9	–
313.15 K, m1 = 0.4	259.34	–
313.15 K, m1 = 0.599	267.9	–
313.15 K, m1 = 0.8028	258.7	–
313.15 K, m1 = 1	258.14	–
318.15 K, m1 = 0.015	252	990.32
318.15 K, m1 = 0.04	264.9	990.29
318.15 K, m1 = 0.07	261.2	990.24
318.15 K, m1 = 0.1001	266	990.21
318.15 K, m1 = 0.2002	265.6	990.07
318.15 K, m1 = 0.4	261.43	989.92
318.15 K, m1 = 0.599	269.7	989.82
318.15 K, m1 = 0.8028	260.8	989.72
318.15 K, m1 = 1	260.24	989.61
323.15 K, m1 = 0.015	259	–
323.15 K, m1 = 0.04	268.9	–
323.15 K, m1 = 0.07	262.6	–
323.15 K, m1 = 0.1001	267.4	–
323.15 K, m1 = 0.2002	267.4	–
323.15 K, m1 = 0.4	263.5	–
323.15 K, m1 = 0.599	271.4	–
323.15 K, m1 = 0.8028	262.77	–
323.15 K, m1 = 1	262.22	–
328.15 K, m1 = 0.015	260	985.77
328.15 K, m1 = 0.04	266.5	985.75
328.15 K, m1 = 0.07	265	985.75
328.15 K, m1 = 0.1001	269.3	985.75
328.15 K, m1 = 0.2002	269.2	–
328.15 K, m1 = 0.4	265.52	–
328.15 K, m1 = 0.599	273.1	–
328.15 K, m1 = 0.8028	264.63	–
328.15 K, m1 = 1	264.06	–
